Data reported in patent US20230160909A1, “NOVEL ION CONDUCTING CHANNEL FUSION SUBUNITS AND METHODS OF USE THEREOF” (UNIVERSITE DE BORDEAUX, priority 2020, published 2023).
Blank lines part the entries; values can stand above or below the compound they belong to.

Columns and labels:
Format in all cases: cell-based
TRPV1 channel = biological target: T1, TRPV1 channel (Homo sapiens, UniProt Q8NER1); test: hTRPV1-nLuc-Calflux-YFP (or mNeonGreen) BRET probe in HEK293T cells
T1 construct: expressed in transfected cells; host or cells: HEK293T

TRPV1 ion channel = biological target: T2, TRPV1 ion channel (Homo sapiens, UniProt Q8NER1); test: mNeonGreen-Calflux-nLuc-hTRPV1 BRET biosensor in HEK293T cells; settings: for inhibition of CAPS-induced BRET increase: FIG. 8C/8E
T2 construct: expressed in transfected cells; host or cells: HEK293T

TREK1 = biological target: T3, TREK1 (Homo sapiens, UniProt O95069); test: mNeon-KBP-nLuc-TREK1 BRET probe in HEK293T cells; settings: repeated activation with increasing quantities, FIG. 10A
T3 construct: expressed in transfected cells; host or cells: HEK293T
T3 sequence (O95069 1-426): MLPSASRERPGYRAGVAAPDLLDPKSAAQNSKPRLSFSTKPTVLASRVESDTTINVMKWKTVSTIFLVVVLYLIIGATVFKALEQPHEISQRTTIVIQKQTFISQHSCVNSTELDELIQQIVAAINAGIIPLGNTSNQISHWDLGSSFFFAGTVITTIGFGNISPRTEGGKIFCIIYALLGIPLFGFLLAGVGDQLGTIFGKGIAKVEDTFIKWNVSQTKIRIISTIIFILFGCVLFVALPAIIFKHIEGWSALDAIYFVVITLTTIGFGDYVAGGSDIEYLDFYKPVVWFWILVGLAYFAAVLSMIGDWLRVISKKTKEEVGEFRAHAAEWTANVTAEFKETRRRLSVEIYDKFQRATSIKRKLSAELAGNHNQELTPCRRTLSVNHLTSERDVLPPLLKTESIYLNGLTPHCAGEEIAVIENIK
Text: (§1) B) Kinetic measurement of the effect of KCl injection on the BRET measured from HEK293T cells transiently expressing mNeon-Calflux-nLuc-KiR6.1 BRET probe. C) Kinetic measurement of the effect of Deltamethrine injection on the BRET measured from HEK293T cells transiently expressing mNeon-SOFI-nLuc-NaV1.8 BRET probe.
(§2) TREK1 BRET probe was activated using the chemical activator BL1249. Kir6.1 BRET probe was activated using KCl. Following depolarization, a strong outward potassium current is known to occur in HEK293T cells. Extracellular potassium ions would therefore be expected to re-enter the cells through ectopically-expressed inward rectifying ion channels such as KiR6.1, thereby increasing the local concentration of potassium in the intracellular vicinity of the KiR ion channel. NaV1.8 was activated in the presence of Deltamethrin, a pyrethroid toxin that is known to prolong the open state of tetrodotoxin-resistant sodium channels. […] While surprising, this observation could nonetheless be explained knowing that TREK1 trigger hyperpolarisation of the cell membrane by allowing potassium to leak outside cells, thus lowering the intracellular potassium concentration which will tend to balance with the extracellular potassium concentration. In that conditions, it has been shown that potassium will inwardly flow through TREK1 opened pore, which is in line with our observations.

NaV1.8 = biological target: T4, NaV1.8 (Homo sapiens, UniProt Q9Y5Y9); test: mNeon-SOFI-nLuc-NaV1.8 BRET probe in HEK293T cells; settings: FIG. 10C
T4 construct: expressed in transfected cells; host or cells: HEK293T
Text: as §1, §2

TRPV4 = biological target: T5, TRPV4 (Homo sapiens, UniProt Q9HBA0); test: mNeonGreen-Calflux-nLuc-hTRPV4 BRET probe in HEK293T cells
T5 construct: expressed in transfected cells; host or cells: HEK293T
Description: (§3) B) Dose response curve of the TRPM8 agonist WS12 to trigger activation of the mNeon-Calflux-nLuc-hTRPM8 BRET probe transiently expressed in HEK293T cells that were pre-treated or not with 10 μM of the TRPM8 antagonist M8B hydrochloride. C) Dose response curve of the PIEZO1 agonist YODA1 to trigger activation of the mNeon-Calflux-nLuc-PIEZO1 BRET probe transiently expressed in HEK293T cells. Data represent the average of at least three independent experiments.
(§4) As described above in Examples 7 and 8, the intramolecular BRET biosensor probes hTRPM8-nLuc-Calflux-mGreen and hTRPV4-nLuc-Calflux-mGreen have been prepared wherein the DNA sequence encoding the human protein TRPM8 is fused in C-terminal to a calflux-based calcium BRET sensor, said sensor being sandwiched between the nano luciferase and mNeonGreen. In an effort to exemplify and validate the concept of Calcium sensor-based BRET probes fused to other ion channels, we first assessed whether the activity of two other TRPs ion channels, TRPV4 and TRPM8, could also be measured using such BRET probes. […] The measured half-maximal responses were consistent with those reported in the literature using patch-clamp or calcium-flux measurements on cells transiently expressing TRPV4 or TRPM8.

KiR6.1 = biological target: T6, KiR6.1 (Homo sapiens, UniProt Q15842); test: mNeon-KBP-nLuc-KiR6.1 BRET probe in HEK293T cells; settings: KCl depolarisation, FIG. 10B
T6 construct: expressed in transfected cells; host or cells: HEK293T
T6 sequence (Q15842 1-424): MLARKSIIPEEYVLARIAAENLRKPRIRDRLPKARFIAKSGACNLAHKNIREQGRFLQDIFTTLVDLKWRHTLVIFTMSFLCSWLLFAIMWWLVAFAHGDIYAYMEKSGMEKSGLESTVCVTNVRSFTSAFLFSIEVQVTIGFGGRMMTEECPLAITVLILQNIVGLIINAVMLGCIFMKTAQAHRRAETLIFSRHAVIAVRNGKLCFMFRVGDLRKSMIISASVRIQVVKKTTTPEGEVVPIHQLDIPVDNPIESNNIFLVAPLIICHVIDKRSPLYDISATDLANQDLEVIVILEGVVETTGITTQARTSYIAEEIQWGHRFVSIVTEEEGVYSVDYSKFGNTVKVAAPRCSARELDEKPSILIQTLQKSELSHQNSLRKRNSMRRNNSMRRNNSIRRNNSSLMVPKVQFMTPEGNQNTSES
Text: […] C) Kinetic measurement of the effect of Deltamethrine injection on the BRET measured from HEK293T cells transiently expressing mNeon-SOFI-nLuc-NaV1.8 BRET probe.
as §2

TRPM8 = biological target: T7, TRPM8 (Homo sapiens, UniProt Q7Z2W7); test: mNeonGreen-Calflux-nLuc-hTRPM8 BRET probe in HEK293T cells
T7 construct: expressed in transfected cells; host or cells: HEK293T
Description: as §3, §4

[1] = biological target: T8, NR1-nLuc-Calflux-YFP/NR2B ion channels (NMDA receptors) (Homo sapiens, UniProt Q05586+Q13224); test: NR1-nLuc-Calflux-YFP BRET probe coexpressed with NR2B in HEK293T cells; settings: read-out: EC50 of activation of NR1-nLuc-Calflux-YFP/NR2B
T8 construct: expressed in transfected cells; host or cells: HEK293T
Text: (§5) FIG. 7: Dose-response for NMDA as measured in HEK293T cells transiently expressing the NR1-nLuc-Calflux-YFP probe alone (A) or coexpressed with NR2A (B) or NR2B (C) subunits.
(§6) We have constructed a novel BRET probe allowing to measure the activity of NMDA receptors by coupling the cDNA of the NR1 subunit to the BRET sensor nLuc-Calflux-YFP (FIG. 7). NMDA receptors are heterotetramers comprising 2 NR1 subunits and 2 NR2 or NR3 subunits. The subunits NR1, NR2 or NR3 expressed separately cannot form functional receptors.

NR1 subunit = biological target: T9, NR1 subunit (Homo sapiens, UniProt Q05586); test: NR1-nLuc-Calflux-YFP BRET probe expressed alone in HEK293T cells; settings: increasing dose, FIG. 7A
T9 construct: expressed in transfected cells; host or cells: HEK293T
Text: as §5, §6

PIEZO1 channel = biological target: T10, PIEZO1 channel (Homo sapiens, UniProt Q92508); test: mNeonGreen-Calflux-nLuc-PIEZO1 BRET probe in HEK293T cells; settings: FIG. 9C
T10 construct: expressed in transfected cells; host or cells: HEK293T
Description: as §3
This confirms the functionality of our calcium sensor-based BRET Probe targeting PIEZO1.

[2] = test system: potassium channel SK3 (KCa2.3); test: SK3-nLuc-KBP-mNeonGreen BRET probe in HEK293T cells; settings: different concentrations, FIG. 5B
Text: FIG. 5: is a schematic representation of the SK3-nLuc-KBP-mNeonGreen probe (A) and the measure of BRET signal as obtained during the activation of the channel in presence of lonomycine (B).
The novel BRET probe has been constructed to measure the activity of potassium channel SK3 (KCa2.3) by coupling the cDNA of the SK3 channel to a potassium sensor (protein KBP, Ashrafet KU al., 2016, Structure 24, 741-749) sandwiched in between luciferase and mNeonGreen (SK3-nLuc-KBP-mNeonGreen, See FIG. 5A).
The BRET sensor is based on KBP which has been published (Bischof H et al, 2017, Nat Commun. 8(1):1422), but this sensor was never coupled to a channel in order to specifically measure the activity of the channel as presented in this invention.

[3] = HEK293T cells pre-treated with 10 μM antagonist

T2 sequence (Q8NER1 whole entry): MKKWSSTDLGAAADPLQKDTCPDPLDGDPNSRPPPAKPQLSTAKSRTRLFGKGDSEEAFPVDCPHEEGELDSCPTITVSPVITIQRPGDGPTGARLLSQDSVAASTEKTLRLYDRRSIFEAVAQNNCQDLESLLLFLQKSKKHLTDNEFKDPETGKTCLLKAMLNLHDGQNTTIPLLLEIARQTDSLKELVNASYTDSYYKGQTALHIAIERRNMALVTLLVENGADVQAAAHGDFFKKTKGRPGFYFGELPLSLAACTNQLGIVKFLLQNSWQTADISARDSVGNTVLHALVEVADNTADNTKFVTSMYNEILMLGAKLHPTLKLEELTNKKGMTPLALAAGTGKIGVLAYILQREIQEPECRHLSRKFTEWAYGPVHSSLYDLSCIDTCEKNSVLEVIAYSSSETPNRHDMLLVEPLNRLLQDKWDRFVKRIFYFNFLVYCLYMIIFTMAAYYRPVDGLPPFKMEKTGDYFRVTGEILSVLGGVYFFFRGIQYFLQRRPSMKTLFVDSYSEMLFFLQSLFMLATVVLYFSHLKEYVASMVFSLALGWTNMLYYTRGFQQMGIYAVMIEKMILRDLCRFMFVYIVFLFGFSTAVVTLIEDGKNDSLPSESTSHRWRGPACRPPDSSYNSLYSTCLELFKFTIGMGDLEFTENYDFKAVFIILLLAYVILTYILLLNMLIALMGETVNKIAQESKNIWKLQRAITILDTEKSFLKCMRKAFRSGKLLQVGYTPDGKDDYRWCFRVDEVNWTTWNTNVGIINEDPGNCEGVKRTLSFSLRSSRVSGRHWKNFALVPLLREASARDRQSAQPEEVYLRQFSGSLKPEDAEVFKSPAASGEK
T5 sequence (Q9HBA0 whole entry): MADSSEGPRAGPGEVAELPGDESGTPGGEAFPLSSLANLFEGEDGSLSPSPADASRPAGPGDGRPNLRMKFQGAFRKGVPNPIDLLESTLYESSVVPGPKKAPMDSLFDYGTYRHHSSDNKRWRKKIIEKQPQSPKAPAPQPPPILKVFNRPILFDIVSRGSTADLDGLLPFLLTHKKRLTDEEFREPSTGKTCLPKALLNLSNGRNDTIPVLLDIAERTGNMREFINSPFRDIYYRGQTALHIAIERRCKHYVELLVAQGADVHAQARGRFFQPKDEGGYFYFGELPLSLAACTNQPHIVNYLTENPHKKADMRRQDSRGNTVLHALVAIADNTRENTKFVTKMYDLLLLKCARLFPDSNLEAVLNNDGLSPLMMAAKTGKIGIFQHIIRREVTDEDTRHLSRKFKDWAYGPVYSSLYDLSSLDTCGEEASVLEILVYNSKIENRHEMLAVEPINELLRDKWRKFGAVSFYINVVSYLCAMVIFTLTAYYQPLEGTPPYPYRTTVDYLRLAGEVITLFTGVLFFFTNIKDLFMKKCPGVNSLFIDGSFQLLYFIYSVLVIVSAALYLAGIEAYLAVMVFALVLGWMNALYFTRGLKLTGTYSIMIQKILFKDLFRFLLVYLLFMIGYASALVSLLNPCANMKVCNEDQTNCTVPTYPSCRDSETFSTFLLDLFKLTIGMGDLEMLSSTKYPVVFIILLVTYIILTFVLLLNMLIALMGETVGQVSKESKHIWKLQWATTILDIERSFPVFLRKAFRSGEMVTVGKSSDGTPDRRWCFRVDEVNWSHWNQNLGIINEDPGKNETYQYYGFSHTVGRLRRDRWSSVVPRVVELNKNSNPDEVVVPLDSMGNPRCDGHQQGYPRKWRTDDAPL
T1 sequence (Q8NER1 whole entry): as the sequence (Q8NER1 whole entry) above
T7 sequence (Q7Z2W7 whole entry): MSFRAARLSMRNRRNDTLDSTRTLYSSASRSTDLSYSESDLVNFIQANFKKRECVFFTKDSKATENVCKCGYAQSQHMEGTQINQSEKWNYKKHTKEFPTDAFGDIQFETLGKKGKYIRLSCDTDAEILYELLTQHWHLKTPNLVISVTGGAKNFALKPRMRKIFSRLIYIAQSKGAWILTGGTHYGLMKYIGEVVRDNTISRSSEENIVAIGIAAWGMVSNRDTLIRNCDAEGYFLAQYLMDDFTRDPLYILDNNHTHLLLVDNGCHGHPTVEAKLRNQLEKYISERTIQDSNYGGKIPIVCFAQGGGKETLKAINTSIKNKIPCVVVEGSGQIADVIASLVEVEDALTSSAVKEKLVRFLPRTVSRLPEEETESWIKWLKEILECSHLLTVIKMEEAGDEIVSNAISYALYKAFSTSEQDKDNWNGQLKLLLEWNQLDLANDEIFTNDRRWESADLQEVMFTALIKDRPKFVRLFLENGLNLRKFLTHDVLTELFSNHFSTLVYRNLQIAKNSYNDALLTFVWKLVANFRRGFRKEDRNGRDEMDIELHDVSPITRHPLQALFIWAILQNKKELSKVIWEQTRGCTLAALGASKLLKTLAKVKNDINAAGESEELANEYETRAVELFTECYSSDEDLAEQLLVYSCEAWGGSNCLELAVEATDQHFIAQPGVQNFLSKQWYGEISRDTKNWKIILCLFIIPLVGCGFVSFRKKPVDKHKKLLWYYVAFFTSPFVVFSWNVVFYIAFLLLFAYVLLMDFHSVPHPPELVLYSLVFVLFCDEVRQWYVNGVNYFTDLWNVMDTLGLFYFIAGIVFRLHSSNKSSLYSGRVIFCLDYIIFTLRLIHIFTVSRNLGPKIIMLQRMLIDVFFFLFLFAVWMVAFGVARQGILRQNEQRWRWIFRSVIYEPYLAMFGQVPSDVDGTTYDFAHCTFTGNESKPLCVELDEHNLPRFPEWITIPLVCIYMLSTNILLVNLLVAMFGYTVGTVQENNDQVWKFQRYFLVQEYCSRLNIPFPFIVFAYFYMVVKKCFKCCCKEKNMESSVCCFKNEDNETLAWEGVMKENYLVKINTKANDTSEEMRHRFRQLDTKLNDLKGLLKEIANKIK
T4 sequence (Q9Y5Y9 whole entry): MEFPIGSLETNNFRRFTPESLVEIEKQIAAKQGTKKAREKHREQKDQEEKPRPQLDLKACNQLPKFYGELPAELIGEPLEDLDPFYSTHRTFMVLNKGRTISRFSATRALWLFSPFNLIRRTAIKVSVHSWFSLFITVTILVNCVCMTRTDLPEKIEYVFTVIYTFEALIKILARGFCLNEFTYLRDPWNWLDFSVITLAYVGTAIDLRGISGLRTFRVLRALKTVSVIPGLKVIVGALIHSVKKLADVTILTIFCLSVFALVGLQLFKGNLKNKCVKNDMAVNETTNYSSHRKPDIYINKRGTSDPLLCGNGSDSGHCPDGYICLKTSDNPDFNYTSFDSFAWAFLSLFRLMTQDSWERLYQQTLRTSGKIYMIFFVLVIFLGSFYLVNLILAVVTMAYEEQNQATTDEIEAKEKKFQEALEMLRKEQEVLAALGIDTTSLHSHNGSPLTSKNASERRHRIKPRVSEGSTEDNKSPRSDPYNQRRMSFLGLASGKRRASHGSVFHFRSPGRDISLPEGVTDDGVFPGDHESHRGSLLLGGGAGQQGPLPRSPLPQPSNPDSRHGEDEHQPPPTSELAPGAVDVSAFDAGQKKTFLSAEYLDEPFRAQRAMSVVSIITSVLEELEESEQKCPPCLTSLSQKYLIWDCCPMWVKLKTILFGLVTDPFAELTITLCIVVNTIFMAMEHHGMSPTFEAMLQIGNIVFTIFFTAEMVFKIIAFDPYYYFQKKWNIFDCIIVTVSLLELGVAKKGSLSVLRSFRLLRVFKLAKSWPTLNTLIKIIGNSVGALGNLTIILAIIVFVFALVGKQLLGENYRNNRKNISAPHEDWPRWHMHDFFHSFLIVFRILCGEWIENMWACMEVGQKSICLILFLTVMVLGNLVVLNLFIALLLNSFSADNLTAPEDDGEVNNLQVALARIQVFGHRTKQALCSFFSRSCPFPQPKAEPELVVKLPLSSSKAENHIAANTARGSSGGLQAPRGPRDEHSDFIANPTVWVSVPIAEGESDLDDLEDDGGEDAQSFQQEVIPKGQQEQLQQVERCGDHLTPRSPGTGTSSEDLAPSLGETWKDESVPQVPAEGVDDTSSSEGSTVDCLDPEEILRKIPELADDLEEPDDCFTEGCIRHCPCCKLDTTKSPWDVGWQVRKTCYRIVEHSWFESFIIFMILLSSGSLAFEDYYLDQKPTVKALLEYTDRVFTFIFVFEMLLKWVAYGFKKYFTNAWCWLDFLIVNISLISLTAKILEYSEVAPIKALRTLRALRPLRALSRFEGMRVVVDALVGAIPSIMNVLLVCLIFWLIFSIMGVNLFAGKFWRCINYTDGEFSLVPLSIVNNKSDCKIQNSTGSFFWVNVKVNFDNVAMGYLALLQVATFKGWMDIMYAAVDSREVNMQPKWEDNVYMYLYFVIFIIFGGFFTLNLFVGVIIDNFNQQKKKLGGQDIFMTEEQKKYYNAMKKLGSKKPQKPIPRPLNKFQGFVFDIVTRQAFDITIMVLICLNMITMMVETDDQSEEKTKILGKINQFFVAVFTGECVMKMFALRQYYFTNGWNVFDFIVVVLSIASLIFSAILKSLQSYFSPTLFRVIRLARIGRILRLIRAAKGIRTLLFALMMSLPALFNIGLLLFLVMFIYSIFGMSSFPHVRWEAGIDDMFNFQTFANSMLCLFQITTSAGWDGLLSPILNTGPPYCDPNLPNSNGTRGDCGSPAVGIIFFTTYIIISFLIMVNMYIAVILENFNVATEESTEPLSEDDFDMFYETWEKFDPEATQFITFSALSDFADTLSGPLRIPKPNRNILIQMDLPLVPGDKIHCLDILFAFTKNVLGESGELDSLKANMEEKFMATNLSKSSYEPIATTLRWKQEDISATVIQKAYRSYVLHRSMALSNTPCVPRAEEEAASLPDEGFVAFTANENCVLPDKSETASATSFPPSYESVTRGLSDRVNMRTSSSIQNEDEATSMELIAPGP

- inhibition of CAPS-induced BRET increase (TRPV1 ion channel): inhibited the CAPS-induced BRET increase
SMILES: CC(=O)Nc1nc2c(Oc3cc(-c4ccc(C(F)(F)F)cc4)ncn3)cccc2s1 [AMG517]
- effect on dose-response to CAPS (antagonism) (TRPV1 channel; FIG. 4A): shifted the dose-response to CAPS to the right

SMILES: c1ccc(-c2nn[nH]n2)c(Nc2cccc3c2CCCC3)c1 [BL1249]
- change of basal BRET (TREK1): dose-dependently increased the basal BRET

SMILES: COc1cc(CNC(=O)CCCC/C=C/C(C)C)ccc1O [CAPS, Capsaïcin]
- change of basal BRET after exposure (TRPV1 ion channel; kinetic measurement, FIG. 8A): dramatically increased with first-order kinetics

SMILES: CC1(C)[C@H](C(=O)O[C@H](C#N)c2cccc(Oc3ccccc3)c2)[C@@H]1C=C(Br)Br [Deltamethrin]
- change of BRET signal (NaV1.8): decrease of the BRET signal

SMILES: CC(C)C[C@H](NC(=O)c1cc2ccccc2s1)C(=O)N1CCN(C(=O)[C@H](CO)NS(=O)(=O)c2ccc(Cl)cc2Cl)CC1 [GSK1016790A]
- change of BRET signal by agonist (TRPV4; HEK293T cells, FIG. 9A): dose-dependently increased

SMILES: Cc1c(C(=O)Nc2cccc(C(F)(F)F)c2)cc(-c2ccccc2)n1CCCN1CCOCC1 [HC060747]
- effect on agonist (GSK1016790A) potency (TRPV4; [3]): right-shifted the corresponding agonist potency to higher values

- change of BRET signal (KiR6.1): increase of the BRET signal
SMILES: [Cl-].[K+] [KCl]

SMILES: COc1cc(CN(CCN)C(=O)c2cccs2)ccc1OCc1ccccc1.Cl [MBB]
- effect on agonist (WS12) potency (TRPM8; [3]): right-shifted the corresponding agonist potency to higher values

SMILES: CN[C@H](CC(=O)O)C(=O)O [NMDA, N-methyl-D-aspartate]
- EC50 [1]: 12.3 µM
- modulation of BRET signal, NR1 probe alone (NR1 subunit): not modulated

- inhibition of CAPS-induced BRET increase (TRPV1 ion channel): failed to inhibit
SMILES: CC(C)NCCN(C(C)C)S(=O)(=O)c1ccc(Cl)cc1Cl [RN1734]

- change of BRET signal by agonist (TRPM8; HEK293T cells, FIG. 9B): dose-dependently increased
SMILES: COc1ccc(NC(=O)[C@@H]2C[C@H](C)CC[C@H]2C(C)C)cc1 [WS12]

- change of BRET signal by agonist (PIEZO1 channel): dose-dependently increased
SMILES: Clc1cccc(Cl)c1CSc1nnc(-c2cnccn2)s1 [YODA1]

SMILES: C[C@H](CCC(=O)O)C[C@H](C)C[C@H](C)C(=O)/C=C(\O)[C@H](C)C[C@H](C)C/C=C/[C@@H](C)[C@@H](O)[C@@H](C)[C@@H](O)C[C@@H]1CC[C@@](C)([C@H]2CC[C@@](C)([C@@H](C)O)O2)O1 [ionomycin]
- change of BRET signal on stimulation (TRPV1 channel; TRPV1-nLuc-Calflux-YFP/mNeonGreen probe): marginal increase
- change of BRET signal (potassium efflux) [2]: decrease of the BRET signal
